# Laboratory results reported in patent US20060069132A1, “Azolecarboxamide herbicides” (priority 2004, published 2006).
# Assays:
# [1] = tested on: corn; experiment: Test B pre-/postemergence herbicide test; assay type: in vivo, Zea mays
# In short: (§1)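 Visual rating, 0 (no effect) to 100 (complete control), versus untreated controls after 13–15 d in greenhouse. Pre- and postemergence applications (postemergence plants 2–18 cm, 1–4 leaves); flooded paddy arm at 2-leaf stage. Compounds in non-phytotoxic solvent plus surfactant.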
# [2] = tested on: giant foxtail; experiment: Test B pre-/postemergence herbicide test; assay type: in vivo, Setaria faberi
# In short: as §1
# [3] = tested on: smallflower umbrella sedge; experiment: Test C flooded paddy test; assay type: in vivo, Cyperus difformis
# Protocol: (§2) At the same time, plants selected from these crop and weed species and also winter barley (Hordeum vulgare L.), blackgrass (Alopecurus myosuroides Huds.), canarygrass (Phalaris minor Retz.), chickweed (Stellaria media (L.) Vill.), downy bromegrass (Bromus tectorum L.), green foxtail (Setaria viridis (L.) Beauv.), Italian ryegrass (Lolium multiflorum Lam.), wheat (Triticum aestivum L.), wild oat (Avenafatua L.) and windgrass (Apera spica-venti (L.) Beauv.) were treated with postemergence applications of some of the test chemicals formulated in the same manner. Plants ranged in height from 2 to 18 cm (1- to 4-leaf stage) for postemergence treatments. Plant species in the flooded paddy test consisted of rice (Oryza sativa), smallflower umbrella sedge (Cyperus difformis L.), ducksalad (Heteranthera limosa (Sw.) Willd.) and barnyardgrass (Echinochloa crus-galli (L.) Beauv.) grown to the 2-leaf stage for testing. Treated plants and controls were maintained in a greenhouse for 12 to 14 days, after which time all species were compared to controls and visually evaluated. Plant response ratings, summarized in Table C, are based on a scale of 0 to 100 where 0 is no effect and 100 is complete control. A dash (-) response means no test result.
# [4] = tested on: velvetleaf; experiment: Test B pre-/postemergence herbicide test; assay type: in vivo, Abutilon theophrasti
# In short: as §1
# [5] = tested on: large crabgrass; experiment: Test B pre-/postemergence herbicide test; assay type: in vivo, Digitaria sanguinalis
# In short: as §1
# [6] = tested on: rice; experiment: Test C flooded paddy test; assay type: in vivo, Oryza sativa
# Protocol: as §2
# [7] = tested on: pigweed; experiment: Test B pre-/postemergence herbicide test; assay type: in vivo, Amaranthus retroflexus
# In short: as §1
# [8] = tested on: lambsquarters; experiment: Test B pre-/postemergence herbicide test; assay type: in vivo, Chenopodium album
# In short: as §1
# [9] = tested on: rice; experiment: Test B flooded paddy test; assay type: in vivo, Oryza sativa; conditions: 1000 g ai/ha, scale 0 to 100 (0 no effect, 100 complete control)
# In short: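 Read-out: visual comparison with controls, scored 0 to 100, where 100 means complete control and 0 no effect. Formulated chemicals were applied postemergence to plants 2–18 cm tall (1- to 4-leaf), or to flooded-paddy plants at the 2-leaf stage, then held 13 to 15 days under glass.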
# [10] = tested on: wheat; experiment: Test B postemergence herbicide test; assay type: in vivo, Triticum aestivum; set-up: key to Wheat plant response rating: 0 = no effect, 100 = complete control
# In short: (§3)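 Formulated test chemicals went onto postemergence plants measuring 2 to 18 cm, at one to four leaves. For the paddy assay, species had reached two leaves. Scoring took place 13–15 days later by eye, relative to untreated plants, using 0 for no effect up to 100 for full control.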
# [11] = tested on: morningglory; experiment: Test B pre-/postemergence herbicide test; assay type: in vivo, Ipomoea coccinea
# In short: (§4)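 Flooded paddy rice and barnyardgrass were treated at the 2-leaf stage; upland plantings received compound either on sown seed or on 1- to 4-leaf seedlings. All were kept 13–15 days in a greenhouse and scored visually, 0–100, relative to untreated plants.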
# [12] = tested on: ducksalad; experiment: Test C flooded paddy test; assay type: in vivo, Heteranthera limosa
# Protocol: as §2
# [13] = tested on: cocklebur; experiment: Test B pre-/postemergence herbicide test; assay type: in vivo, Xanthium strumarium
# In short: as §4
# [14] = tested on: wild oat; experiment: Test B postemergence herbicide test; assay type: in vivo, Avena fatua
# In short: as §3
# [15] = tested on: Surinam grass; experiment: Test B pre-/postemergence herbicide test; assay type: in vivo, Urochloa decumbens
# In short: as §1
# [16] = tested on: barnyardgrass; experiment: Test B pre-/postemergence herbicide test; assay type: in vivo, Echinochloa crus-galli; conditions: for Barnyardgrass plant response rating: Postemergence, scale 0 (no effect) to 100 (complete control)
# In short: as §4
# [17] = tested on: barnyardgrass; experiment: Test C flooded paddy test; assay type: in vivo, Echinochloa crus-galli
# Protocol: as §2
# [18] = tested on: blackgrass; experiment: Test B postemergence herbicide test; assay type: in vivo, Alopecurus myosuroides
# In short: (§5)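 After treating 2-leaf paddy plants or 2–18 cm postemergence plants (1 to 4 leaves) with formulated chemical, researchers kept them in a greenhouse for 13–15 days. Effects were judged visually versus controls: 0 indicates none, 100 total control.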
# [19] = tested on: small flower umbrella sedge; experiment: Test B flooded paddy test; assay type: in vivo, Cyperus difformis; conditions: 1000 g ai/ha, scale 0 to 100 (0 no effect, 100 complete control)
# In short: as §5
# [20] = tested on: ducksalad; experiment: Test B flooded paddy test; assay type: in vivo, Heteranthera limosa; conditions: 1000 g ai/ha, scale 0 to 100 (0 no effect, 100 complete control)
# In short: as §5
# [21] = tested on: barnyardgrass; experiment: Test B flooded paddy test; assay type: in vivo, Echinochloa crus-galli; conditions: 1000 g ai/ha, scale 0 to 100 (0 no effect, 100 complete control)
# In short: as §5
# [22] = 125 g ai/ha, 0 is no effect, 100 is complete control, preemergence
# [23] = Postemergence, 500 g ai/ha, scale 0 (no effect) to 100 (complete control)
# [24] = postemergence, 125 g ai/ha, scale 0 to 100
# [25] = 125 g ai/ha, scale 0 to 100 (0 no effect, 100 complete control)
# [26] = 250 g ai/ha, scale of 0 to 100, 0 is no effect, 100 is complete control
# [27] = 500 g ai/ha, visual rating after 12 to 14 days, scale 0 to 100 (0 no effect, 100 complete control)
compound,measurement,setting,value
CCN(C)C(=O)c1cccc(NC(=O)c2nn(C(C)C)nc2C)c1 [Compound 407],"Plant response rating (0 to 100 scale), Corn",[1]; [22],0
same,Corn plant response rating,[1]; [23],20
same,Corn plant response rating,[1]; [24],10
same,"Plant response rating (0 to 100 scale), Foxtail, Giant",[2]; [22],30
same,"Foxtail, Giant plant response rating",[2]; [23],30
same,"Foxtail, Giant plant response rating",[2]; [24],10
same,"Sedge, Umbrella plant response rating","[3]; 62 g ai/ha, scale 0 to 100",20
same,"Sedge, Umbrella plant response rating",[3]; [25],60
same,"Sedge, Umbrella plant response rating",[3]; [26],75
same,"Plant response rating, Sedge, Umbrella",[3]; [27],75
same,"Plant response rating (0 to 100 scale), Velvetleaf",[4]; [22],10
same,Velvetleaf plant response rating,[4]; [23],20
same,Velvetleaf plant response rating,[4]; [24],20
same,"Plant response rating (0 to 100 scale), Crabgrass, Large",[5]; [22],80
same,"Crabgrass, Large plant response rating",[5]; [23],20
same,"Crabgrass, Large plant response rating",[5]; [24],10
same,Rice plant response rating,"[6]; 62 g ai/ha, scale 0 to 100",0
same,Rice plant response rating,[6]; [25],0
same,Rice plant response rating,[6]; [26],20
same,"Plant response rating, Rice",[6]; [27],40
same,"Plant response rating (0 to 100 scale), Pigweed",[7]; [22],50
same,Pigweed plant response rating,[7]; [23],40
same,Pigweed plant response rating,[7]; [24],30
same,"Plant response rating (0 to 100 scale), Lambsquarters",[8]; [22],80
same,Lambsquarters plant response rating,[8]; [23],60
same,Rice plant response rating,[9],50
same,Wheat plant response rating,"[10]; 500 g ai/ha, scale 0 to 100, 0 no effect, 100 complete control, preemergence",70
same,Wheat plant response rating,[10]; [23],0
same,Wheat plant response rating,[10]; [24],0
same,"Plant response rating (0 to 100 scale), Morningglory",[11]; [22],30
same,Morningglory plant response rating,[11]; [23],60
same,Morningglory plant response rating,[11]; [24],20
same,Ducksalad plant response rating,"[12]; 62 g ai/ha, scale 0 to 100",20
same,Ducksalad plant response rating,[12]; [25],40
same,Ducksalad plant response rating,[12]; [26],40
same,"Plant response rating, Ducksalad",[12]; [27],40
same,"Plant response rating (0 to 100 scale), Cocklebur",[13]; [22],10
same,Cocklebur plant response rating,[13]; [23],20
same,Cocklebur plant response rating,[13]; [24],10
same,"Oat, Wild plant response rating",[14]; [23],0
same,"Oat, Wild plant response rating",[14]; [24],0
same,"Plant response rating (0 to 100 scale), Surinam Grass",[15]; [22],30
same,Surinam Grass plant response rating,[15]; [23],20
same,Surinam Grass plant response rating,[15]; [24],0
same,"Plant response rating (0 to 100 scale), Barnyardgrass",[16]; [22],40
same,Barnyardgrass plant response rating,[16]; 125 g ai/ha,0
same,Barnyardgrass plant response rating,[16]; 500 g ai/ha,10
same,Barnyardgrass plant response rating,"[17]; 62 g ai/ha, scale 0 to 100 (0 no effect, 100 complete control)",0
same,Barnyardgrass plant response rating,[17]; [25],0
same,Barnyardgrass plant response rating,[17]; [26],0
same,"Plant response rating, Barnyardgrass",[17]; [27],20
same,Blackgrass plant response rating,[18]; [23],20
same,Blackgrass plant response rating,[18]; [24],0
same,"Sedge, Umbrella plant response rating",[19],90
same,Ducksalad plant response rating,[20],80
same,Barnyardgrass plant response rating,[21],80
